Here are results for 15 molecules from patent US9408926B2, “KDR and VEGF/KDR binding peptides and their use in diagnosis and therapy” (Bracco Suisse S.A., priority 2002, dated 2016).

Values joined by “and” are separate entries in the source; they are usually repeats but may differ in a detail not shown here. Equal values may be shown once.

For experiment [1], the target named is KDR. Description: KD, B (μM).
Description: Head of the field: KD, B (μM)
Where the first naming reader finds the target: passage: truncated polypeptides tested for binding to KDR-expressing cells.
Experiment [2] concerns the target T1, KDR expressed in transiently-transfected 293H cells (Homo sapiens, UniProt P35968).
T1 construct: Both PCR products were digested with Not1 and ligated together to create the full-length receptor; V5-His (of vector pcDNA6/V5-His C); expressed in transfected cells; host or cells: 293H cells (Invitrogen cat. #11631), transient, lipofectamine 2000
Put plainly: Binding of biotinylated peptide/neutravidin-HRP complexes to KDR-transfected 293H cells. The class given is cell-based. As to conditions: for Reduction of binding of peptide/avidin HRP complex in presence of serum: 40% rat serum, single concentration 2.22-6.66 nM; for Binding of tetrameric peptide/avidin-HRP complexes to KDR-transfected cells: 3.33 nM complex.

Experiment [3] deals with T2, KDR-expressing 293H cells (Homo sapiens, UniProt P35968).
T2 construct: Both PCR products were digested with Not1 and ligated together to create the full-length receptor; V5-His (of vector pcDNA6/V5-His C); expressed in transfected cells; host or cells: 293H cells (Invitrogen cat. #11631), transient, lipofectamine 2000
T2 sequence (P35968 20-1356): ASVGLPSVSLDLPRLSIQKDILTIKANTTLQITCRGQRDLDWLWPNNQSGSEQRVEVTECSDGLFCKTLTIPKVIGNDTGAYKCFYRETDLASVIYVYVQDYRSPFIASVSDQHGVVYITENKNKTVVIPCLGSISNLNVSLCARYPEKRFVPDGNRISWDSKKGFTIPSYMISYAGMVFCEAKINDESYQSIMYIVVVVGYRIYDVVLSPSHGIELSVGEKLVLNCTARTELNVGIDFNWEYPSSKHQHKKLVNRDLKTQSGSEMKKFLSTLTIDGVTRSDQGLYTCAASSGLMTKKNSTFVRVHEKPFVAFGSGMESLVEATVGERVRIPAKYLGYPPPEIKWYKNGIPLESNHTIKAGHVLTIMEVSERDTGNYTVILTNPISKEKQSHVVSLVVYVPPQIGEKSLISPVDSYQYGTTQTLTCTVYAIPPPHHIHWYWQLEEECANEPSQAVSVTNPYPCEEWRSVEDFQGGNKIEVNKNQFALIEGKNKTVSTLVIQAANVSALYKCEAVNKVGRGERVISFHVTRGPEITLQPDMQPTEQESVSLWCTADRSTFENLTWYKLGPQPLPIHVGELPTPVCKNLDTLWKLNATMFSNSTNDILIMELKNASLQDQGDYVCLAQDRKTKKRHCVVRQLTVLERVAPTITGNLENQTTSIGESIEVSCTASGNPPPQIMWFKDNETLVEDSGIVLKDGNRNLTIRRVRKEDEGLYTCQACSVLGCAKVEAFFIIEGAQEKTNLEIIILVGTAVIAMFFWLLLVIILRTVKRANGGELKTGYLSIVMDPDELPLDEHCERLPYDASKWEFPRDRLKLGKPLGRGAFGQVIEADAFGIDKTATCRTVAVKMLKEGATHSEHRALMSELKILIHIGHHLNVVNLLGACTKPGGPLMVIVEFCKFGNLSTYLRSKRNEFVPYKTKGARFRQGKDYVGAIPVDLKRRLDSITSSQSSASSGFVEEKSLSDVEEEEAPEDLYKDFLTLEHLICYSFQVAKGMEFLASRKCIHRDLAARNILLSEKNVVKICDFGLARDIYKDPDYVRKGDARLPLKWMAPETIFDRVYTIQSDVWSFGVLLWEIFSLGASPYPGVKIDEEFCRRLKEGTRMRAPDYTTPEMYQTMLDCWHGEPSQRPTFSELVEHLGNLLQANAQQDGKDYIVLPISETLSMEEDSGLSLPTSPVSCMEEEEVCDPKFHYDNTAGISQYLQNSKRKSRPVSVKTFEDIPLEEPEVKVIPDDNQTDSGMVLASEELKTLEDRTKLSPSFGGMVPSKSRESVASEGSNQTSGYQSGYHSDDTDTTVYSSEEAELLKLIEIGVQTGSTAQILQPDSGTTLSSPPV
Description: Bead-binding assay with peptide-conjugated fluorescent beads. Type of experiment: cell-based. The settings on record: KDR- versus mock-transfected 293H cells, 40% FBS. Here is the method:
The following procedures were performed to assess the ability of KDR-binding peptides to bind to KDR-expressing cells. In this procedure, KDR-binding peptides containing SEQ ID NOS:264, 337, 363, and 373 were conjugated to fluorescent beads, and their ability to bind to KDR-expressing 293H cells was assessed. The experiments show these peptides can be used to bind particles such as beads to KDR-expressing sites.
As a positive control, biotinylated anti-KDR antibody was incubated with the Neutravidin-coated beads as above, except that 0.03 mg of the biotinylated antibody preparation in PBS (Gibco #14190-136) was used instead of peptide solution. Beads can be stored at 4° C. until needed for up to 1 week.
From the above bead preparations, 0.12 mL was spun for 10 minutes at 2000 rpm in a microcentrifuge at room temperature. The supernatant was removed and 0.06 mL of MES pH 6.0 was added. Each bead solution was then vortexed and sonicated in a water bath 15 min. […] The plates were then read on a Packard FluoroCount fluorometer at excitation 550 nm/emission 620 nm. […]
To calculate the number of beads bound per well, a standard curve with increasing numbers of the same fluorescent beads was included in each assay plate. The standard curve was used to calculate the number of beads bound per well based on the fluorescence intensity of each well.

For experiment [4], the system named is VEGF-induced migration of HUVECs. Put plainly: VEGF-induced HUVEC migration assay. Type of experiment: cell-based, human. As to conditions: for IC50: VEGF 10 ng/mL, 22 hours, read-out: IC50 for blocking VEGF-induced migration. How it is done:
After 22 hours, quantitation of cell migration/invasion was achieved by post-labeling cells in the insert plates with a fluorescent dye and measuring the fluorescence of the invading/migrating cells in a fluorescent plate reader. The VEGF-induced migration was calculated by subtracting the migration that occurred when only basal medium was placed in the lower chamber of the wells.
Serum-starved HUVECs were placed, 100,000 cells per well, into the upper chambers of BD fibronectin-coated FluoroBlok 24-well insert plates. […] After 22 hours, quantitation of cell migration/invasion was achieved by post-labeling cells in the insert plates with a fluorescent dye and measuring the fluorescence of the invading/migrating cells in a fluorescent plate reader. The VEGF-induced migration was calculated for each experimental condition by subtracting the amount of migration that occurred when only basal medium was added to the lower chamber of the wells.
Serum-starved HUVECs were placed, 100,000 cells per well, into the upper chambers of BD fibronectin-coated FluoroBlok 24-well insert plates. […] After 22 hours, quantitation of cell migration/invasion was achieved by post-labeling cells in the insert plates with a fluorescent dye and measuring the fluorescence of the invading/migrating cells in a fluorescent plate reader. VEGF-induced migration was calculated for each experimental condition by subtracting the amount of migration observed in the absence of VEGF.
Serum-starved HUVECs were placed, 100,000 cells per well, into the upper chambers of BD fibronectin-coated FluoroBlok 24-well insert plates. […] After 22 hours, quantitation of cell migration/invasion was achieved by post-labeling cells in the insert plates with a fluorescent dye and measuring the fluorescence of the invading/migrating cells in a fluorescent plate reader. VEGF-stimulated migration was derived by subtracting the basal migration measured in the absence of VEGF.
Serum-starved HUVECs were placed, 100,000 cells per well, into the upper chambers of BD fibronectin-coated FluoroBlok 24-well insert plates. […] After 22 hours, quantitation of cell migration/invasion was achieved by post-labeling cells in the insert plates with a fluorescent dye and measuring the fluorescence of the invading/migrating cells in a fluorescent plate reader.

Experiment [5] concerns KDR-expressing NMU-induced mammary tumor. Description: Contrast ultrasound with D5-containing microbubbles to monitor sunitinib treatment of NMU-induced tumors. The class given is in vivo, rat. The settings on record: for Area *10 (tumor size, fundamental B-mode): sunitinib 40 mg/kg/day from day 106, values multiplied by 10. How it is done:
Four (4) female OFA rats (Charles River, Lyon, France) were investigated. At the specific age of 42 days, animals received intraperitoneal injection of N-methyl-N-nitrosourea 50 mg/kg (NMU, Sigma-Aldrich, ref D3254) prepared in 0.9% NaCl, in order to develop a KDR-expressing tumor in the animals (see latency period infra). […] Animals received food and water (tap water) ad libitum.
Stock solution was made weekly and stored at 4° C.
At the level of the tumor site, skin was gently shaved and an ultrasound coupling gel (Aquasonic 100, Parker, USA) was applied between the clinical ultrasound probe and the skin.
The linear probe L12-5 was used.
Vials of a contrast agent containing D5 were reconstituted in 2 ml glucose 5%. […] Emulsification was effected at 12′000 rpm (five minutes). The lyophilizate was reconsistituted as described above. The contrast agent was quickly injected through the catheter placed in the caudal vein at the dose of 2 μl gas per kg. […] Injections were performed at a constant rate of 4 ml/min.
Tumor size was assessed in fundamental-B mode […].
Contrast enhancement was quantified from Dicom files using an in-house quantification and providing, among other parameters, mean echo-signal values in areas of interest as a function of time. The amplitude of the echo signal was expressed as linearized echo amplitude values. Individual frames were analyzed, time-intensity curves were generated and Maximum intensity (Imax) was determined as an index of tumor vascularization and late phase opacification (LPO) was determined at 10 min after injection in the median plane of the tumor.

Experiment [6] relates to SW-480 human colon carcinoma cells. Put plainly: In vivo inhibition of tumor growth, SW-480 xenograft in nude mice. As to conditions: for Tumor Weights: 6 mg/kg IV. How it is done:
Female athymic nude mice (Crl:NU/NU-nuBR) at 6-8 weeks of age were used in this study. […] Test Articles and vehicle were administered intraperitoneally (IP), Cisplatin was administered intravenously (IV). Tumor measurements were recorded twice weekly using hand-held calipers. Mice were monitored daily for signs of toxicity and morbidity. At study termination, animals were euthanized by carbon dioxide overdose and necropsied for tissue collection.
A total of nine (9) groups were used in this study. Each group contained ten (10) tumor-bearing mice. Groups 1 and 2 contained untreated and vehicle treated negative control mice, respectively. […] Group 9 contained mice that received cisplatin, a standard chemotherapeutic compound as a positive control.
Dosing began the same day that animals were randomly sorted into groups (Study Day 7). Each dose was removed from the dose vial using aseptic technique for each animal and the injection site was wiped with an alcohol swab prior to dose administration. Doses were administered with a 1.0 mL syringe and a 27-gauge×½″ needle for each mouse
The Test Article- and vehicle-treated mice received daily intraperitoneal (IP) injections for 15 days. Cisplatin was administered every other workday for a total of five (5) doses via an intravenous route.
Clinical Observations of each animal were performed and recorded at least once daily for toxicity, morbidity and mortality. Morbidity included signs of illness such as, but not limited to, emaciation, dehydration, lethargy, hunched posture, unkempt appearance, dyspnea and urine or fecal staining.
In accordance with the protocol tumor measurements were taken twice weekly throughout the study by measuring the length and width of tumors with calibrated calipers. […] Tumor weights were calculated using the following formula: mg=(L×W^2)/2. Animals were euthanized either when mean tumor weight was ≧1000 mg per group over two (2) consecutive measurements, or if tumors became ulcerated, impaired the animal's ability to ambulate or obtain food and water.

T1 sequence (P35968 20-1356): as above

In general, Kd refers to a measure of binding affinity in units of concentration. As for GDSRVCWEDSWGGEVCFGGGK [compound 369], the Kd in experiment [1] stood at 1300 nM.
On to AGPTWCEDDWYYCWLFGTGGGK [SEQ ID NO:277], for which, in experiment [2], the “Reduction of binding of peptide/avidin HRP complex in presence of serum” value is recorded as “more than 50%”.
Take “GDSRVCWEDSWGGEVCFRYDPGGGK [SEQ ID NO:294]”: the “Binding of peptide-conjugated fluorescent beads, JJ spacer” value in experiment [3] was “significantly improved the specific binding to KDR”. Moreover, in experiment [2], the “Binding of tetrameric peptide/avidin-HRP complexes to KDR-transfected cells” value is given as “bound to KDR-transfected cells significantly better than to mock-transfected cells” and the “Reduction of binding of peptide/avidin HRP complex in presence of serum” value was “not significantly affected”.
Turning to “Ac-AQDWYYDEILJGRGGRGGRGGK (SEQ ID NO:478) {K[Ac-VCWEDSWGGEVCFRYDPGGGK (SEQ ID NO:337) (JJ-Glut)-NH2]}—NH2 [D17]”, the IC50 in experiment [4] is about 250 nM.
In the case of `CCN(CC)CCNC(=O)c1c(C)[nH]c(/C=C2\C(=O)Nc3ccc(F)cc32)c1C` [sunitinib, Sunitinib], the “Change of tumor size as a percentage of the tumor prior sunitinib treatment” value in experiment [5] (48 hours after treatment, 40 mg/kg/day oral, individual rats, 40 mg/kg/day) was −4.6% and −0.7% and 30%. Moreover, the “Change of Imax” value in experiment [5] (48 hours after treatment, individual rats no. 1, 2, 3) was −11% and +23% and +11%. Besides, the “Area *10 (tumor size, fundamental B-mode)” value in experiment [5] (rat no. 1, day 108) was determined as 20.80; in experiment [5] (rat no. 1, day 115), 11.00; in experiment [5] (rat no. 1, day 116), 10.10; in experiment [5] (rat no. 2, day 108), 26.70; in experiment [5] (rat no. 2, day 109), 20.20; in experiment [5] (rat no. 3, day 108), 7.5. The “Area *10 (tumor size, fundamental B-mode)” value in experiment [5] (rat no. 3, day 114) came out at 2.9; in experiment [5] (rat no. 3, day 116) it was 3.0.
In experiment [1], SRVCWEDSWGGEVCFRYGGGGK [compound 371] showed a Kd of 35 nM.
With “Ac-AGPTWCEDDWYYCWLFGTGGGK (SEQ ID NO:277){Ac-GDSRVCWEDSWGGEVCFRYDPGGGK (SEQ ID NO:294)[JJ-Glut-NH(CH2)4-(S)—CH(NH2)C(═O)—]—NH2}—NH2 [D25]”, in experiment [4], the IC50 is 5 nM.
As for “5 CF-Gly-N{[CH2CH2C(═O)-Gly-N(CH2CH2C(═O)-Adoa-Thr-Lys-Pro-Pro-Arg-OH]2}2 [Adjunct A]”, the “Block of VEGF-induced migration” value in experiment [4] (100 nM alone) is listed as “not by 100 nM Adjunct A alone”.
Turning to AGPKWCEEDWYYCMITGTGGGK [SEQ ID NO:264], in experiment [3], the “Binding of peptide-conjugated fluorescent beads, JJ spacer” value was “enhanced binding to KDR cells”. Moreover, in experiment [2], the “Binding of tetrameric peptide/avidin-HRP complexes to KDR-transfected cells” value was “bound to KDR-transfected cells significantly better than to mock-transfected cells” and the “Reduction of binding of peptide/avidin HRP complex in presence of serum” value was “not significantly affected”.
Take `N.N.[Cl][Pt][Cl]` [Cisplatin, reference compound]: the “Mean tumor weight on Study Day 22” value in experiment [6] (Group 9, intravenous, five doses) turned out to be 995 mg.
For GDSRVCWEDSWGGEVCFRYGGGK [compound 372], binding in experiment [1] was put at a Kd of 60 nM.
For the molecule “Ac-AQDWYYDEILSMADQLRHAFLSGGGGGK [SEQ ID NO:356]”, in experiment [2], the “Reduction of binding of peptide/avidin HRP complex in presence of serum” value is “not significantly affected”.
In turn, `CC(C)c1cc(/C=C(\C#N)C(=O)NCCCc2ccccc2)cc(C(C)C)c1O` [SU-1498, reference compound] yielded a VEGF-induced migration blocked in experiment [4] (3 micromolar) of 47%.
VCWEDSWGGEVCFGGGK [compound 368] registered a Kd in experiment [1] of 910 nM.
In the case of `N.N.[Cl][Pt][Cl]` [Cisplatnin], the “Tumor Weights” value was 34 mg in experiment [6] (day 4 after cell injection); 160 mg in experiment [6] (day 7 after cell injection); 173 mg in experiment [6] (day 8 after cell injection); 407 mg in experiment [6] (day 11 after cell injection); 675 mg in experiment [6] (day 14 after cell injection); 635 mg in experiment [6] (day 20 after cell injection). Besides, the “Tumor Weights” value in experiment [6] (day 21 after cell injection) is recorded as 839 mg; in experiment [6] (day 22 after cell injection), 995 mg.
